Reference: publication PMC12722994, “The aryl hydrocarbon receptor is associated with monocytic AML and innate immune resistance reversible with an AHR inhibitor” (Frontiers in Immunology, 2025)

Target: T1, aryl hydrocarbon receptor (AHR) (Homo sapiens, UniProt P35869)
T1 sequence (P35869 11-848): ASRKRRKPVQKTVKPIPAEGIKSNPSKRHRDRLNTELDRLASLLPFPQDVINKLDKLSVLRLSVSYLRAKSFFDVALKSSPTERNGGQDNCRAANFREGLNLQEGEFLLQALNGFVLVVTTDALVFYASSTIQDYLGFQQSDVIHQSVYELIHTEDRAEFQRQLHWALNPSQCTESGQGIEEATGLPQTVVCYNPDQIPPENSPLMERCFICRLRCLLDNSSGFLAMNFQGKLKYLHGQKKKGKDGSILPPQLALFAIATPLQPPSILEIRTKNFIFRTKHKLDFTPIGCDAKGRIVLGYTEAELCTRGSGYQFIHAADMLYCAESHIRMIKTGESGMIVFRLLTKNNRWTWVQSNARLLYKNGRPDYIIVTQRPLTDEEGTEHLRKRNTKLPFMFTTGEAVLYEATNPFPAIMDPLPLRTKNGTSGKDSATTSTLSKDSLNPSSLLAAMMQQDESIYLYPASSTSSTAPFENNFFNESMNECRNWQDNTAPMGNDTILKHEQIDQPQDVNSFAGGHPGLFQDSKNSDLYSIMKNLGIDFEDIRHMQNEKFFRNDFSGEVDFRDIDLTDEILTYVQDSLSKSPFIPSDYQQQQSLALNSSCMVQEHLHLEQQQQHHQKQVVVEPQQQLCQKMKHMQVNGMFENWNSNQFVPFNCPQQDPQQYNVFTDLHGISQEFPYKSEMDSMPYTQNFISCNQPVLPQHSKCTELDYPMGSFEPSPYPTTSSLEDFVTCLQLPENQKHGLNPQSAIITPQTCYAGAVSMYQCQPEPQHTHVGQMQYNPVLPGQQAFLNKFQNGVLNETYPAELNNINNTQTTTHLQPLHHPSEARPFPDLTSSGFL
Assay: Inhibition of AHR target gene CYP1B1 expression (RT-qPCR) in MOLM-14 cells, endogenous AHR; functional readout only
Type: cell-based

IK-364
IC50: 5 nM
